Format in all cases: functional, cell-based
Experiment [1] has as its system IMR-32. As to the kind of experiment: Cytotoxicity against Homo sapiens (human) IMR32 cells after 48 hr by SRB assay. Particulars: IMR-32, 48 h.
Experiment [2] concerns OVCAR. As to the kind of experiment: Cytotoxicity against Homo sapiens (human) OVCAR cells after 48 hr by SRB assay.
The subject of experiment [3] is PC-3. Briefly: Cytotoxicity against Homo sapiens (human) PC3 cells after 48 hr by SRB assay. Particulars: PC-3, 48 h.
In experiment [4] the test system is HEp-2. Briefly: Cytotoxicity against Homo sapiens (human) Hep2 cells after 48 hr by SRB assay. To be noted: HEp-2, 48 h. For orientation: In SRB staining, fixed cells bind dye roughly in proportion to their protein.

The values that follow come from ChEMBL document CHEMBL3045315, “Effect of ring A and ring B substitution on the cytotoxic potential of pyrazole tethered chalcones” (Med Chem Res, 2012).

As a reminder, the IC50 is the concentration at which inhibition is half-maximal.

For the molecule `COc1ccc(C2CC(c3ccccc3)=NN2C(C)=O)cc1` (stereo not given), the IC50 in experiment [1] is 9.73 µM; in experiment [2], 13.8 µM; in experiment [3] it was 7.67 µM; in experiment [4], 10.7 µM.
As for `COc1ccc(C2CC(c3ccc(Br)cc3)=NN2C(C)=O)cc1` (stereo not given), the 50% inhibitory concentration (IC50) worked out at 15.7 µM in experiment [1], 16.9 µM in experiment [2], 17.8 µM in experiment [3] and 17.9 µM in experiment [4].
Consider `CC(=O)N1N=C(c2ccc(Br)cc2)CC1c1ccccc1` (stereo not given), for which the IC50 in experiment [1] was 22.4 µM; in experiment [2], 21.2 µM; in experiment [3], 29.9 µM; in experiment [4], 27.8 µM.
`COc1cc(C2CC(c3ccc(Br)cc3)=NN2C(C)=O)cc(OC)c1OC` (stereo not given): the 50% inhibitory concentration (IC50) in experiment [1] was found to be 3.13 µM; in experiment [2], 4.78 µM; in experiment [3] it was 3.45 µM; in experiment [4] it was 4.53 µM.
For the molecule `CC(=O)N1N=C(c2ccccc2)CC1c1ccc2c(c1)OCO2` (stereo not given), the IC50 in experiment [1] is 7.64 µM; in experiment [2], 8.73 µM; in experiment [3] it was 8.89 µM; in experiment [4], 6.65 µM.
For the molecule `CC(=O)N1N=C(c2ccccc2)CC1c1ccc(N(C)C)cc1` (stereo not given), the IC50 amounted to 9.66 µM in experiment [1], 12 µM in experiment [2], 7.88 µM in experiment [3] and 14.6 µM in experiment [4].
With `CC(=O)N1N=C(c2ccccc2)CC1c1cccc(Cl)c1Cl` (stereo not given), the concentration for half-maximal inhibition (IC50) was 42.9 µM in experiment [1], 36.8 µM in experiment [2], 31.6 µM in experiment [3] and 24 µM in experiment [4].
Take `COc1cc(C2CC(c3ccccc3)=NN2C(C)=O)ccc1O` (stereo not given): the IC50 turned out to be 5.78 µM in experiment [1], 6.63 µM in experiment [2], 7.56 µM in experiment [3] and 4.99 µM in experiment [4].
For `COc1cc(C2CC(c3ccccc3)=NN2C(C)=O)cc(OC)c1OC` (stereo not given), the half-inhibitory concentration (IC50) in experiment [1] is 3.38 µM; in experiment [2] it was 4.64 µM; in experiment [3], 3.39 µM; in experiment [4] it was 3.56 µM.
Turning to `COc1ccc(C2CC(c3ccc(Br)cc3)=NN2C(C)=O)cc1OC` (stereo not given), the IC50 stood at 5.54 µM in experiment [1], 5.59 µM in experiment [2], 7.76 µM in experiment [3] and 8.87 µM in experiment [4].
As to `CC(=O)N1N=C(c2ccc(Br)cc2)CC1c1cccc(Cl)c1Cl` (stereo not given), the IC50 stood at 45.7 µM in experiment [1], 39.8 µM in experiment [2], 38.8 µM in experiment [3] and 50 µM in experiment [4].
Take `CC(=O)N1N=C(c2ccc(Br)cc2)CC1c1ccc2c(c1)OCO2` (stereo not given): the IC50 is 9.89 µM in experiment [1], 11.2 µM in experiment [2], 11 µM in experiment [3] and 8.72 µM in experiment [4].
With `CC(=O)N1N=C(c2cccc([N+](=O)[O-])c2)CC1c1ccccc1` (stereo not given), the IC50 in experiment [1] worked out at 7.89 µM; in experiment [2] it was 9.92 µM; in experiment [3], 8.71 µM; in experiment [4], 8.93 µM.
For the molecule `COc1ccc(C2CC(c3cccc([N+](=O)[O-])c3)=NN2C(C)=O)cc1` (stereo not given), the IC50 in experiment [1] was determined as 6.65 µM; in experiment [2] it was 8.76 µM; in experiment [3], 7.83 µM; in experiment [4], 8.21 µM.
With `COc1ccc(C2CC(c3cccc([N+](=O)[O-])c3)=NN2C(C)=O)cc1OC` (stereo not given), the half-inhibitory concentration (IC50) came to 6.22 µM in experiment [1], 8.11 µM in experiment [2], 6.78 µM in experiment [3] and 7.81 µM in experiment [4].
In the case of `CC(=O)N1N=C(c2cccc([N+](=O)[O-])c2)CC1c1cccc(Cl)c1Cl` (stereo not given), the IC50 in experiment [1] amounted to 25.3 µM; in experiment [2], 19.7 µM; in experiment [3], 18.2 µM; in experiment [4] it was 27.6 µM.
Taken in the same sequence, the figures for `CC(=O)N1N=C(c2cccc([N+](=O)[O-])c2)CC1c1ccc2c(c1)OCO2` (stereo not given) were 7.89 µM, 9.87 µM, 8.21 µM and 7.65 µM.
For `CC(=O)N1N=C(c2ccccc2)CC1c1ccccc1` (stereo not given), the IC50 in experiment [1] worked out at 11.9 µM; in experiment [2], 23.5 µM; in experiment [3], 8.69 µM; in experiment [4], 11.8 µM.
Taken in the same sequence, the figures for `COc1ccc(C2CC(c3ccccc3)=NN2C(C)=O)cc1OC` (stereo not given) were 4.49 µM, 5.56 µM, 6.78 µM and 7.85 µM.
Take `CC(=O)O[C@H]1C(=O)[C@@]2(C)[C@H]([C@H](OC(=O)c3ccccc3)[C@]3(O)C[C@H](OC(=O)[C@H](O)[C@@H](NC(=O)c4ccccc4)c4ccccc4)C(C)=C1C3(C)C)[C@]1(OC(C)=O)CO[C@@H]1C[C@@H]2O` [PACLITAXEL]: the IC50 amounted to 0.03 µM in experiment [1], 0.06 µM in experiment [2], 0.12 µM in experiment [3] and 0.11 µM in experiment [4].
